Key:
Test in all cases: relative viability (nuclei count vs DMSO), 5 days (fraction); higher = more cells survive
[1] = compound: C#Cc1cccc(Nc2ncnc3cc(OC)c(OCCCCCCC(=O)NO)cc23)c1 [CUDC-101] + CC(=O)Nc1cccc(-n2c(=O)n(C3CC3)c(=O)c3c(Nc4ccc(I)cc4F)n(C)c(=O)c(C)c32)c1 [Trametinib] (partner 0.02 µM)
Outline: (§1)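 Medians of duplicate plates are given as relative viability. That measure is the nuclei count in treated wells divided by the count in vehicle wells. Counts were taken on 4× images of lung cancer cell lines in 1536-well plates, 5 days after pin-tool dosing the day after seeding with one drug alone or a fixed anchor-drug dose plus five library-drug doses (not always all listed) in √10 steps.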

[2] = compound: COc1cc2/c(=N/c3ccc(Br)cc3F)nc[nH]c2cc1OCC1CCN(C)CC1 [Vandetanib] + CC1(C)CCC(c2ccc(Cl)cc2)=C(CN2CCN(c3ccc(C(=O)NS(=O)(=O)c4ccc(N[C@H](CCN5CCOCC5)CSc5ccccc5)c(S(=O)(=O)C(F)(F)F)c4)cc3)CC2)C1 [Navitoclax] (partner 0.5 µM)
Outline: as §1

[3] = compound: C1=CC=C2C(=C1)N=C(S2)C(C#N)C3=NC(=NC=C3)NCCC4=CN=CC=C4 + O=C(c1cc(Cc2n[nH]c(=O)c3ccccc23)ccc1F)N1CCN(C(=O)C2CC2)CC1 [Olaparib] (partner 8 µM)
Outline: as §1

[4] = compound: COc1cc2/c(=N/c3ccc(Br)cc3F)nc[nH]c2cc1OCC1CCN(C)CC1 [Vandetanib] + Nc1ncn([C@H]2C[C@H](O)[C@@H](CO)O2)c(=O)n1 [Decitabine] (partner 2 µM)
Outline: as §1

Row | Cell Line | relative viability ([1]; first compound 0.01 µM) | relative viability ([1]; first compound 0.03162 µM) | relative viability ([1]; first compound 0.1 µM) | relative viability ([1]; first compound 0.3162 µM) | relative viability ([1]; first compound 1 µM) | relative viability ([2]; first compound 0.02 µM) | relative viability ([2]; first compound 0.06325 µM) | relative viability ([2]; first compound 0.2 µM) | relative viability ([2]; first compound 0.6325 µM) | relative viability ([2]; first compound 2 µM) | relative viability ([3]; first compound 0.005 µM) | relative viability ([3]; first compound 0.01581 µM) | relative viability ([3]; first compound 0.05 µM) | relative viability ([3]; first compound 0.1581 µM) | relative viability ([3]; first compound 0.5 µM) | relative viability ([4]; first compound 0.02 µM) | relative viability ([4]; first compound 0.06325 µM) | relative viability ([4]; first compound 0.2 µM) | relative viability ([4]; first compound 0.6325 µM) | relative viability ([4]; first compound 2 µM)
1 | 201T | 0.734 | 0.711 | 0.714 | 0.69 | 0.701 | 1.1 | 1.19 | 1.2 | 1.15 | 1.19 | 0.829 | 0.837 | 0.802 | 0.905 | 0.706 | 0.831 | 0.828 | 0.859 | 0.85 | 0.797
2 | A549 |  |  |  |  |  | 1.12 | 1.23 | 1.12 | 1.08 | 1.22 | 0.488 | 0.236 | 0.321 | 0.409 | 0.232 | 0.189 | 0.267 | 0.281 | 0.252 | 0.34
3 | A-427 | 0.763 | 0.743 | 0.736 | 0.733 | 0.461 | 0.931 | 0.952 | 0.992 | 0.935 | 0.874 | 0.699 | 0.694 | 0.698 | 0.856 | 0.718 | 0.58 | 0.59 | 0.541 | 0.517 | 0.574
4 | ABC-1 |  |  |  |  |  |  |  |  |  |  | 0.731 |  | 0.803 | 0.825 | 0.936 | 1.14 | 1.04 | 1.13 | 1.4 | 0.833
5 | BEN | 1.03 | 0.889 | 0.895 | 0.972 | 0.706 | 0.0787 | 0.0663 | 0.063 | 0.0857 | 0.0698 | 0.976 | 1.21 | 1.03 | 1.05 | 0.853 | 0.651 | 0.7 | 0.625 | 0.725 | 0.446
6 | CAL-12T | 0.311 | 0.381 | 0.373 | 0.41 | 0.335 | 1.22 | 1.19 | 1.37 | 1.28 | 1.13 | 0.712 | 0.658 | 0.739 | 0.866 | 0.648 |  |  |  |  | 
7 | COR-L23 | 0.641 | 0.548 | 0.74 | 0.574 | 0.332 | 0.95 | 0.915 | 0.114 | 1.07 | 0.954 | 0.318 | 0.327 | 0.355 | 0.373 | 0.306 | 0.447 | 0.442 | 0.491 | 0.401 | 0.422
8 | COR-L 105 | 0.442 | 0.424 | 0.41 | 0.452 | 0.311 | 0.833 | 0.888 | 0.826 | 0.804 | 0.353 | 0.544 | 0.602 | 0.602 | 0.578 | 0.551 | 0.683 | 0.574 | 0.622 | 0.561 | 0.505
9 | Calu-6 |  |  |  |  |  | 0.891 | 0.761 | 0.973 | 0.895 | 0.734 | 0.602 | 0.619 | 0.52 | 0.644 | 0.505 |  |  |  |  | 
10 | ChaGo-K-1 | 0.958 | 0.898 | 0.909 | 0.87 | 0.784 | 0.939 | 0.998 | 0.942 | 1.24 | 0.489 | 0.372 | 0.425 | 0.408 | 0.421 | 0.402 | 0.518 | 0.519 | 0.287 | 0.496 | 0.523
11 | EBC-1 |  |  |  |  |  | 0.36 | 0.39 | 0.449 | 0.366 | 0.38 | 0.784 | 0.757 | 0.656 | 0.629 | 0.574 |  |  |  |  | 
12 | EKVX | 0.353 | 0.349 | 0.335 | 0.407 | 0.224 | 0.934 | 0.869 | 0.882 | 0.753 | 0.806 | 1 | 0.865 | 0.797 | 0.689 | 0.673 | 0.378 | 0.322 | 0.345 | 0.279 | 0.212
13 | EMC-BAC-2 | 0.918 | 0.811 | 0.864 | 0.779 | 0.479 | 1.11 | 1.11 | 0.76 | 1.12 | 1.06 | 0.512 | 0.481 | 0.469 | 0.476 | 0.427 | 1.03 | 0.938 | 0.902 | 0.966 | 0.905
14 | EPLC-272H | 0.279 | 0.258 | 0.26 | 0.265 | 0.229 | 1.06 | 1.03 | 1.14 | 1 | 1.09 |  | 0.803 | 0.733 | 0.825 | 0.517 | 0.381 | 0.35 | 0.343 | 0.364 | 0.314
15 | H3255 | 0.596 | 0.536 |  | 0.445 | 0.209 | 0.5 | 0.421 | 0.332 | 0.161 | 0.108 | 0.55 | 0.594 | 0.603 | 0.575 | 0.534 | 0.766 | 0.559 | 0.565 | 0.387 | 0.207
16 | HARA | 0.417 | 0.487 |  | 0.356 | 0.235 | 1.1 | 0.996 | 1.13 | 1.07 | 1.15 | 0.773 | 0.659 | 0.942 | 0.822 | 0.954 | 0.466 | 0.653 | 0.515 | 0.559 | 0.578
17 | HCC-15 | 0.396 | 0.382 | 0.385 | 0.399 | 0.262 | 0.685 | 0.702 | 0.682 | 0.756 | 0.649 | 0.663 | 0.727 | 0.662 | 0.837 | 0.686 | 0.662 | 0.516 | 0.562 | 0.616 | 0.616
18 | HCC-44 | 1.04 | 1.08 | 1.04 | 1.05 | 1.03 | 1.05 | 1.02 | 0.93 | 0.976 | 0.947 | 0.994 | 1 | 0.987 | 1.01 | 0.968 | 0.999 | 0.992 | 0.949 | 0.897 | 0.973

Source: the supplement of paper PMC10307832
